Activity calls are given as the source filed them. No cut-off for these calls is given here.
Legend:
A549 [1] = assay: Induction of cell cycle arrest in human A549 cells assessed as accumulation of cells at S phase at 5 uM incubated for 24 hrs by propidium iodide staining based flow cytometry (reference value: 38.18%); format: functional
[2] = AUC(0 to infinity) in Sprague-Dawley rat at 1 mg/kg, iv by LC-MS/MS analysis; format: ADME, organism-based; conditions: in vivo
A549 [3] = assay: Induction of morphological changes in human A549 cells assessed as reduction in cell number at 1.1 uM measured after 12 hrs by acridine orange staining based fluorescence microscopy; format: functional
A549 [4] = assay: Induction of cell cycle arrest in human A549 cells assessed as accumulation of cells at G2 phase at 5 uM incubated for 24 hrs by propidium iodide staining based flow cytometry (reference value: 7.36%); format: functional
A549 [5] = assay: Induction of cell cycle arrest in human A549 cells assessed as accumulation of cells at G1 phase at […] incubated for 24 hrs by propidium iodide staining based flow cytometry (reference value: 54.46%); format: functional; conditions: dose 2.5 µM
A549 [6] = assay: Induction of apoptosis in human A549 cells assessed as early apoptotic cells at 10 uM measured after 24 hrs by AnnexinV-FITC/PI staining based flow cytometry (reference value: 1.26%); format: functional
A549 [7] = assay: Induction of cell cycle arrest in human A549 cells assessed as accumulation of cells at G1 phase at 10 uM incubated for 24 hrs by propidium iodide staining based flow cytometry (reference value: 54.46%); format: functional
HeLa = assay: Antiproliferative activity against human HeLa cells assessed as reduction in cell viability incubated for 72 hrs by MTT assay; format: functional, cell-based; conditions: Homo sapiens, HeLa, 72 h; read-out: IC50
A549 [8] = assay: cells; conditions: Homo sapiens, A549, 72 h
A549 [9] = assay: Induction of apoptosis in human A549 cells assessed as necrotic cells at 5 uM measured after 24 hrs by AnnexinV-FITC/PI staining based flow cytometry (reference value: 4.01%); format: functional
[10] = AUC(0 to t) in Sprague-Dawley rat at 10 mg/kg, po by LC-MS/MS analysis; format: ADME, organism-based; conditions: in vivo
[11] = target: Vascular endothelial growth factor receptor 2 (Homo sapiens, UniProt P35968); assay: Inhibition of VEGFR2 (unknown origin)
Sequence of Vascular endothelial growth factor receptor 2 (P35968 whole entry): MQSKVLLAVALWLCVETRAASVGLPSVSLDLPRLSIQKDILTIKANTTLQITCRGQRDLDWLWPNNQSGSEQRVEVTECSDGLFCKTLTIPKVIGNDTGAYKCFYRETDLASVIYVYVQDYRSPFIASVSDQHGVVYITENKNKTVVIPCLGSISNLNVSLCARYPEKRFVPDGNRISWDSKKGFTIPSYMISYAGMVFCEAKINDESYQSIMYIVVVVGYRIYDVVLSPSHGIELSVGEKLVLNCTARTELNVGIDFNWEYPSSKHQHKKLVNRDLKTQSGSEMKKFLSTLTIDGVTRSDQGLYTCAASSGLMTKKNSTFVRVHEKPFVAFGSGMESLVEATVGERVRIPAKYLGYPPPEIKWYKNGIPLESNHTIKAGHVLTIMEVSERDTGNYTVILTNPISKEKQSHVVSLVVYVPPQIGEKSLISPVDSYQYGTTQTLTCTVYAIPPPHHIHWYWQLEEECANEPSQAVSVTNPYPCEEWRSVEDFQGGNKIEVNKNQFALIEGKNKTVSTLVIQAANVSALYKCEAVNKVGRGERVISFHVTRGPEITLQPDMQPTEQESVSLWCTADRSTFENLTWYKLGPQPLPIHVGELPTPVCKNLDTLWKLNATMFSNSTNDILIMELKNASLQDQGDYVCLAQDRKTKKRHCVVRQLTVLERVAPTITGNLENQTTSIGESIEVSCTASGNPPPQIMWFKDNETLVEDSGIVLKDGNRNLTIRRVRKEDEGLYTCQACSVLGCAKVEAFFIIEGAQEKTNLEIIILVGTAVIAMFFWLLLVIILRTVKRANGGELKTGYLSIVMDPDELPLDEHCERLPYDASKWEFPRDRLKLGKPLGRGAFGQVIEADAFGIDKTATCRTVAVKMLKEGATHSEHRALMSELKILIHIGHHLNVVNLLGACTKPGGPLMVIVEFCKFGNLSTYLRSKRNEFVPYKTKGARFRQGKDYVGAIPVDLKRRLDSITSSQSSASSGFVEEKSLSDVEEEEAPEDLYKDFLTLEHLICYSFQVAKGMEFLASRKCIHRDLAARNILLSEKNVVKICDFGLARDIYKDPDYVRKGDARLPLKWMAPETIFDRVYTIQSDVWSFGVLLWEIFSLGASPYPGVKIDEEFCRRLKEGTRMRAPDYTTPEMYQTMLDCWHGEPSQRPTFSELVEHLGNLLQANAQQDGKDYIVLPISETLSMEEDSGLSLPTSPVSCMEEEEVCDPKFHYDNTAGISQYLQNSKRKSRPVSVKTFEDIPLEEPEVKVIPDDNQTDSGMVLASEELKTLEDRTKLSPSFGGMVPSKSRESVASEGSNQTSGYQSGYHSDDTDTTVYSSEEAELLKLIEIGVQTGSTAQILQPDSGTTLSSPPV

A549 [12] = assay: Induction of apoptosis in human A549 cells assessed as viable cells at […] measured after 24 hrs by AnnexinV-FITC/PI staining based flow cytometry (reference value: 93.25%); format: functional; conditions: dose 2.5 µM, read-out: Activity
[13] = target: Dual specificity mitogen-activated protein kinase kinase 1 (Homo sapiens, UniProt Q02750); assay: Inhibition of MEK1 (unknown origin)
Sequence of Dual specificity mitogen-activated protein kinase kinase 1 (Q02750 whole entry): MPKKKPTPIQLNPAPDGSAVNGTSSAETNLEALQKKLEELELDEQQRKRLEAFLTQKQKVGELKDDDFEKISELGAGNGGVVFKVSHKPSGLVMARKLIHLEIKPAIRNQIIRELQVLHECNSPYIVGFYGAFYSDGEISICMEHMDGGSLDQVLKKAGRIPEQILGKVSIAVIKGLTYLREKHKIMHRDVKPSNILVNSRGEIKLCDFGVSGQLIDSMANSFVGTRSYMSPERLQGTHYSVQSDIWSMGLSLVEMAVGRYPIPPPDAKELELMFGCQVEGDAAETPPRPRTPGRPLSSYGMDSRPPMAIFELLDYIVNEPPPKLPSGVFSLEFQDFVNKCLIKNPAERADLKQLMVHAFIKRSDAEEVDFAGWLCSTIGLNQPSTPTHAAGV

[14] = Half life in Sprague-Dawley rat at 1 mg/kg, iv by LC-MS/MS analysis; format: ADME, organism-based; conditions: in vivo
[15] = Cmax in Sprague-Dawley rat at 1 mg/kg, iv by LC-MS/MS analysis; format: ADME, organism-based; conditions: in vivo
A549 [16] = assay: Induction of apoptosis in human A549 cells assessed as viable cells at 10 uM measured after 24 hrs by AnnexinV-FITC/PI staining based flow cytometry (reference value: 93.25%); format: functional; conditions: read-out: Activity
A549 [17] = assay: Induction of apoptosis in human A549 cells assessed as late apoptotic cells at 10 uM measured after 24 hrs by AnnexinV-FITC/PI staining based flow cytometry (reference value: 1.47%); format: functional
A549 [18] = assay: Induction of apoptosis in human A549 cells assessed as early apoptotic cells at […] measured after 24 hrs by AnnexinV-FITC/PI staining based flow cytometry (reference value: 1.26%); format: functional; conditions: dose 2.5 µM
A549 [19] = assay: Induction of cell cycle arrest in human A549 cells assessed as accumulation of cells at G1 phase at 5 uM incubated for 24 hrs by propidium iodide staining based flow cytometry (reference value: 54.46%); format: functional
A549 [20] = assay: Induction of morphological changes in human A549 cells assessed as nucleus division and dispersion at 1.1 uM measured after 12 hrs by acridine orange staining based fluorescence microscopy; format: functional, cell-based
[21] = Tmax in Sprague-Dawley rat at 10 mg/kg, po by LC-MS/MS analysis; format: ADME, organism-based; conditions: in vivo
[22] = target: Mast/stem cell growth factor receptor Kit (Homo sapiens, UniProt P10721); assay: Inhibition of c-Kit (unknown origin)
Sequence of Mast/stem cell growth factor receptor Kit (P10721 whole entry): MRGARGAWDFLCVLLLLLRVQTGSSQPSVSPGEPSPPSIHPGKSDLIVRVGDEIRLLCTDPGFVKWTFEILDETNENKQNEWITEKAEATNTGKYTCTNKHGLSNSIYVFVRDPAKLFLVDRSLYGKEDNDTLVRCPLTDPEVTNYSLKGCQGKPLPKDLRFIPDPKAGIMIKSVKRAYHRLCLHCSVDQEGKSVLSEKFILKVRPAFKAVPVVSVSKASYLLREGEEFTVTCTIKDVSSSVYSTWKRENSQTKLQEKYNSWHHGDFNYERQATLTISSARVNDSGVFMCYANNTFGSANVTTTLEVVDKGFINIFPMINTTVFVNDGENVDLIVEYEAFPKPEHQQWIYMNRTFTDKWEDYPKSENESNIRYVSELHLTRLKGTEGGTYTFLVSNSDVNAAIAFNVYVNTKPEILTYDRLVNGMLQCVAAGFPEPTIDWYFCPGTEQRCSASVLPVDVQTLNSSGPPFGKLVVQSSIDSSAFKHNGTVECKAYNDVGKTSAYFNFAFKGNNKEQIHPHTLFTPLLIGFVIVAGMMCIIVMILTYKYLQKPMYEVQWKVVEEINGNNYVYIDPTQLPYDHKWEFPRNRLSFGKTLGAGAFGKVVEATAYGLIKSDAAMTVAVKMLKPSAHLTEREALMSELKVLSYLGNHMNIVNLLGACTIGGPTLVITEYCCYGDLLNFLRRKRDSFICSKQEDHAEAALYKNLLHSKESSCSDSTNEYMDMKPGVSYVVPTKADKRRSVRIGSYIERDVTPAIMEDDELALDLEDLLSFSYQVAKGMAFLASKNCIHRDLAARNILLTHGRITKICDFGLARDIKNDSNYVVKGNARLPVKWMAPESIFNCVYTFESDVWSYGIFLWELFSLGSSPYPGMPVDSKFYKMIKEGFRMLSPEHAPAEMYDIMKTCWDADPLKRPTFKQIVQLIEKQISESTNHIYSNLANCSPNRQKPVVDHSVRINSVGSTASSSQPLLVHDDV

A549 [23] = assay: Induction of apoptosis in human A549 cells assessed as necrotic cells at 10 uM measured after 24 hrs by AnnexinV-FITC/PI staining based flow cytometry (reference value: 4.01%); format: functional
A549 [24] = assay: Induction of cell cycle arrest in human A549 cells assessed as accumulation of cells at G2 phase at […] incubated for 24 hrs by propidium iodide staining based flow cytometry (reference value: 7.36%); format: functional; conditions: dose 2.5 µM
A549 [25] = assay: Induction of cell cycle arrest in human A549 cells assessed as accumulation of cells at G2 phase at 10 uM incubated for 24 hrs by propidium iodide staining based flow cytometry (reference value: 7.36%); format: functional
A549 [26] = assay: Induction of apoptosis in human A549 cells assessed as viable cells at 5 uM measured after 24 hrs by AnnexinV-FITC/PI staining based flow cytometry (reference value: 93.25%); format: functional; conditions: read-out: Activity
[27] = target: Hepatocyte growth factor receptor (Homo sapiens, UniProt P08581); assay: Inhibition of c-Met (unknown origin)
Sequence of Hepatocyte growth factor receptor (P08581 whole entry): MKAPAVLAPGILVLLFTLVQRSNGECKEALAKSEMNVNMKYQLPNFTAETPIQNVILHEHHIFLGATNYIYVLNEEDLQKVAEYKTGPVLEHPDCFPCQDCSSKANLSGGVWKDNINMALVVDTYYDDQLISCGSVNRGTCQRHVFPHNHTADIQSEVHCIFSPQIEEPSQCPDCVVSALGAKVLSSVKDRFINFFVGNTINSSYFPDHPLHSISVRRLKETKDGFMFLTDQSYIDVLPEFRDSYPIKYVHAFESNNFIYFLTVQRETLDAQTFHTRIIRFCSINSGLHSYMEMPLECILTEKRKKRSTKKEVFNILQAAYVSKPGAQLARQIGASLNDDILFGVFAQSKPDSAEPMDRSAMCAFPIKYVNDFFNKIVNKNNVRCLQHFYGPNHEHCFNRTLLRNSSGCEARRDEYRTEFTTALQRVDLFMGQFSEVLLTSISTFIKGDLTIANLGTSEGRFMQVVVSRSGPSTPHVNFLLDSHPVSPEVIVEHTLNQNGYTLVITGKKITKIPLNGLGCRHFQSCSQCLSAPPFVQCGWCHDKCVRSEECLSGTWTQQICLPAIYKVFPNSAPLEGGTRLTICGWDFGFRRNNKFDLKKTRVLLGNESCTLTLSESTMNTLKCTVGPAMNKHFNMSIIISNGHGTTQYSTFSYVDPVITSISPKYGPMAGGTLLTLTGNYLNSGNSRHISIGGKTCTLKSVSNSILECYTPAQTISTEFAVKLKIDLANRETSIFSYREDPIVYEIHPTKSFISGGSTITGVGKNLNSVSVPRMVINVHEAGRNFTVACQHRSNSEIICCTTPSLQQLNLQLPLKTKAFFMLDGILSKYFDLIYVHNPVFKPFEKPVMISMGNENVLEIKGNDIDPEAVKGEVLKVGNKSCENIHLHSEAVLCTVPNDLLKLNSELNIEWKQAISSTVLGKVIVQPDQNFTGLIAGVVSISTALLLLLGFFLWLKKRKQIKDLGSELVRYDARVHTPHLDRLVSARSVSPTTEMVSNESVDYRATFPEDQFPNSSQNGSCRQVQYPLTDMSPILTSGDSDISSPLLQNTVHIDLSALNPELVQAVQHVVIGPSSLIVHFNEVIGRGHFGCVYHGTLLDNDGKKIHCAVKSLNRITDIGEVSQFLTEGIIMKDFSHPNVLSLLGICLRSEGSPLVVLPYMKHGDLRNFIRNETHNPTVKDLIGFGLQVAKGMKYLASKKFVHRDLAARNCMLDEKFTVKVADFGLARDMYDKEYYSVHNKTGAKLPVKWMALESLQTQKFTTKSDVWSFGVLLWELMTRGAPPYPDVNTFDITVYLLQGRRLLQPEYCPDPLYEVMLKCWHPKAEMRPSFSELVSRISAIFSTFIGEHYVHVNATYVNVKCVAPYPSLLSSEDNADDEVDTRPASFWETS

MCF7 = assay: cells; conditions: Homo sapiens, MCF7, 72 h
[28] = AUC(0 to t) in Sprague-Dawley rat at 1 mg/kg, iv by LC-MS/MS analysis; format: ADME, organism-based; conditions: in vivo
A549 [29] = assay: Induction of apoptosis in human A549 cells assessed as necrotic cells at […] measured after 24 hrs by AnnexinV-FITC/PI staining based flow cytometry (reference value: 4.01%); format: functional; conditions: dose 2.5 µM
[30] = Cmax in Sprague-Dawley rat at 10 mg/kg, po by LC-MS/MS analysis; format: ADME, organism-based; conditions: in vivo
A549 [31] = assay: Induction of apoptosis in human A549 cells assessed as late apoptotic cells at […] measured after 24 hrs by AnnexinV-FITC/PI staining based flow cytometry (reference value: 1.47%); format: functional; conditions: dose 2.5 µM
A549 [32] = assay: Potency index, ratio of cabozantinib IC50 to test compound IC50 for antiproliferative activity against human A549 cells; format: functional
[33] = AUC(0 to infinity) in Sprague-Dawley rat at 10 mg/kg, po by LC-MS/MS analysis; format: ADME, organism-based; conditions: in vivo
[34] = Oral bioavailability in Sprague-Dawley rat at 10 mg/kg by LC-MS/MS analysis; format: ADME, organism-based; conditions: in vivo
A549 [35] = assay: Induction of cell cycle arrest in human A549 cells assessed as accumulation of cells at S phase at 10 uM incubated for 24 hrs by propidium iodide staining based flow cytometry (reference value: 38.18%); format: functional

What does the source list for `O=C(NCCCN1CCOCC1)c1cc(Oc2ccc(NC(=O)c3cn(-c4ccc(F)c(Cl)c4)c4ncccc4c3=O)cc2F)ccn1`?
Activity (A549 [1]): 30.85%; AUC(0-inf) [2]: 2870 ng·h/mL; Activity (A549 [3]): Active; Activity (A549 [4]): 11.77%; Activity (A549 [5]): 55.95%; Activity (A549 [6]): 5.57%; Activity (A549 [7]): 58.67%; IC50 (HeLa): 820 nM; IC50 (A549 [8]): 260 nM; Activity (A549 [9]): 7.49%; AUC(0-t) [10]: 3320 ng·h/mL; IC50 [11]: > 100000 nM; viability at […] (A549 [12]): 93.1%; IC50 [13]: > 100000 nM; half-life [14]: 2.5 h; Cmax [15]: 1630 ng/mL; viability at 10 µM (A549 [16]): 74.3%; Activity (A549 [17]): 8.25%; Activity (A549 [18]): 1.57%; Activity (A549 [19]): 57.38%; Activity (A549 [20]): Active; Tmax [21]: 2.7 h; IC50 [22]: > 100000 nM; Activity (A549 [23]): 11.9%; Activity (A549 [24]): 8.89%; Activity (A549 [25]): 12.65%; viability at 5 µM (A549 [26]): 85.2%; IC50 [27]: 46.5 nM; IC50 (MCF7): 2350 nM; AUC(0-t) [28]: 2860 ng·h/mL; Activity (A549 [29]): 3.34%; Cmax [30]: 390 ng/mL; Activity (A549 [31]): 2.02%; Ratio IC50 (A549 [32]): 2.4; AUC(0-inf) [33]: 3400 ng·h/mL; bioavailability [34]: 13.2%; Activity (A549 [35]): 28.68%
